We go through 57 molecules from BindingDB's records for doi:10.7270/Q2639NCQ (The Scripps Research Institute Molecular Screening Center, 2013).

The IC50 is the concentration at which inhibition is half-maximal.

Molecules are shown by their SMILES.

The target in the assay is T1, Mitochondrial peptide methionine sulfoxide reductase (Bos taurus, UniProt P54149).
T1 sequence (P54149 whole entry): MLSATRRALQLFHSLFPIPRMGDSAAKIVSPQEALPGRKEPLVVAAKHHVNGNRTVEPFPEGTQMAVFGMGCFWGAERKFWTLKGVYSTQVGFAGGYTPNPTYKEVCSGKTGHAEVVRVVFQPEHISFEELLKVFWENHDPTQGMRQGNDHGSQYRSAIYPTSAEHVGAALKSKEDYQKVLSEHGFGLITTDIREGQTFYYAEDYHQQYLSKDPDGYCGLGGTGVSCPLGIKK
As to `CCOC(=O)c1c(NC(=O)COC(=O)/C=C/c2ccco2)sc2c1CC(C)(C)NC2(C)C` [2-[[2-[(E)-3-(2-furanyl)-1-oxoprop-2-enoxy]-1-oxoethyl]amino]-5,5,7,7-tetramethyl-4,6-dihydrothieno[2,3-c]pyridine-3-carboxylic acid ethyl ester], the IC50 is > 155 µM.

Regarding `COC(=O)/C(=C1/Oc2ccc(C)cc2S1)C(F)(F)F` [methyl (2E)-3,3,3-trifluoro-2-(5-methyl-1,3-benzoxathiol-2-ylidene)propanoate], the IC50 is > 155 µM.

As for `Cc1cc([N+](=O)[O-])ccc1Nc1nc2ccccc2n2cnnc12` [N-(2-methyl-4-nitrophenyl)[1,2,4]triazolo[4,3-a]quinoxalin-4-amine], the IC50 is > 155 µM.

Regarding `Cn1c2c(c(=O)n(C)c1=O)C(C(F)(F)F)(C(F)(F)F)NC(C1CCCCC1)=N2` [SMR000219726], the IC50 was > 155 µM.

Consider `CCOC(=O)c1cc2c(ccc3ccccc32)oc1=O` [3-oxo-2-benzo[f][1]benzopyrancarboxylic acid ethyl ester], for which the IC50 was > 155 µM.

For `CSc1nc2sc3c(c2c2nnnn12)CCCC3` [MLS000071273], the concentration for half-maximal inhibition (IC50) was > 155 µM.

For the molecule `COC(=O)c1ccccc1NC(=S)NC(=O)C1CC1` [methyl 2-({[(cyclopropylcarbonyl)amino]carbothioyl}amino)benzoate], the IC50 is > 155 µM.

Regarding `c1ccc2c(c1)nc(N1CCOCC1)c1nnnn12` [4-(4-tetrazolo[1,5-a]quinoxalinyl)morpholine], the IC50 is > 155 µM.

Regarding `Cc1ccc(C)n1-n1c(C)nc2scc(-c3ccccc3)c2c1=O` [MLS000564386], the IC50 was > 155 µM.

As for `COC(=O)c1ccc(S(=O)(=O)N2CCCN(Cc3cccc(Br)c3F)CC2)n1C` [5-[[4-[(3-bromo-2-fluorophenyl)methyl]-1,4-diazepan-1-yl]sulfonyl]-1-methyl-2-pyrrolecarboxylic acid methyl ester], the IC50 is > 155 µM.

`CC(=O)COc1ccc2c(-c3ccccc3)cc(=O)oc2c1C` [8-methyl-7-(2-oxidanylidenepropoxy)-4-phenyl-chromen-2-one]: the IC50 was > 155 µM.

Turning to `COc1cccc2c1Oc1cc([N+](=O)[O-])cc(N(C)C(C)=O)c1C=C2` [SMR000559347], the IC50 was > 155 µM.

On to `CCN(c1ccccc1)c1nc2nonc2nc1NCCO` [2-[6-(Ethyl-phenyl-amino)-[1,2,5]oxadiazolo[3,4-b]pyrazin-5-ylamino]-ethanol], for which the IC50 is > 155 µM.

In the case of `NC(=O)c1ccc(Nc2ccc3c(c2)CCC3)c([N+](=O)[O-])c1` [4-(2,3-dihydro-1H-inden-5-ylamino)-3-nitro-benzamide], the IC50 is > 155 µM.

On to `c1ccc(-n2nnnc2-n2nnc3ccccc32)cc1` [1-(1-phenyl-1,2,3,4-tetrazol-5-yl)benzotriazole], for which the IC50 was > 155 µM.

Consider `O=Cc1c(-c2ccccc2)nc2ccccn12` [2-phenyl-3-imidazo[1,2-a]pyridinecarboxaldehyde], for which the IC50 is > 155 µM.

For the molecule `CCC(C)c1ccccc1NC(=O)COC(=O)C1=NN(c2ccccc2)C(=O)CC1` (configuration not stated) [6-oxo-1-phenyl-4,5-dihydropyridazine-3-carboxylic acid [2-(2-butan-2-ylanilino)-2-oxoethyl] ester], the IC50 was > 155 µM.

Turning to `Cc1ccc(NC(=O)C2CCCO2)cc1[N+](=O)[O-]` (configuration not stated) [SMR000197718], the IC50 was > 155 µM.

Take `CCOC(=O)C1CCN(C(=O)c2c(C)oc3c2C(=O)c2ccccc2C3=O)CC1`: the IC50 was > 155 µM.

For `Cc1ccc(-c2cc(C(F)F)nc(N3CCOCC3)n2)cc1`, the IC50 was > 155 µM.

As to `O=C1N=C(N2C=CC(c3ccncc3)C=C2)C(=CN=NC(=O)c2ccccc2)S1`, the IC50 was > 155 µM.

For `O=C(c1ccco1)c1cc2c(ccc3ccccc32)oc1=O` [2-(furan-2-ylcarbonyl)benzo[f]chromen-3-one], the IC50 was > 155 µM.

Regarding `Cc1ccc(C)n1-n1c(C)nc2scc(-c3cccs3)c2c1=O` [3-(2,5-dimethyl-1-pyrrolyl)-2-methyl-5-thiophen-2-yl-4-thieno[2,3-d]pyrimidinone], the IC50 is > 155 µM.

Consider `CC(C)(C)c1cc([N+](=O)[O-])cc(C(C)(C)C)c1O` [MLS000755910], for which the IC50 was > 155 µM.

As for `COc1cccc(C2=Nc3nnnn3C(c3cccc(OC)c3OC)C2)c1` (configuration not stated), the IC50 is > 155 µM.

In the case of `Cc1ccccc1-c1nc(C#N)c(N2CCCCC2)o1` [MLS001165046], the IC50 was > 155 µM.

Turning to `CC(Nc1cc(N2CCOCC2)ccc1[N+](=O)[O-])c1ccccc1` (configuration not stated) [MLS000573605], the IC50 is > 155 µM.

For `Cc1ccccc1Nc1c(N)c(=O)oc2ccccc12` [MLS000563389], the IC50 is > 155 µM.

Take `N#CC(C=Nc1ccccc1O)c1nc2ccccc2o1` (configuration not stated) [SMR000171441]: the IC50 was > 155 µM.

With `O=Cc1cn(-c2ccccc2)nc1-c1ccc2c(c1)OCCO2` [3-(2,3-Dihydro-benzo[1,4]dioxin-6-yl)-1-phenyl-1H-pyrazole-4-carbaldehyde], the IC50 is > 155 µM.

On to `COc1cc(C2C(C(=O)c3sc(C)nc3C)C(=O)C(=O)N2CCN(C)C)cc(OC)c1OC` (configuration not stated) [1-[2-(dimethylamino)ethyl]-3-[(2,4-dimethyl-5-thiazolyl)-oxomethyl]-4-hydroxy-2-(3,4,5-trimethoxyphenyl)-2H-pyrrol-5-one], for which the IC50 is > 155 µM.

For `O=[N+]([O-])c1cnc(Nc2ccc(Cl)cn2)c([N+](=O)[O-])c1`, the IC50 is > 155 µM.

Regarding `C#Cc1cccc(Nc2nc(NCCOC)nc3ccsc23)c1` [4-N-(3-ethynylphenyl)-2-N-(2-methoxyethyl)thieno[3,2-d]pyrimidine-2,4-diamine], the IC50 is > 155 µM.

`CC(Sc1ncc(C(F)(F)F)cc1Cl)C(=O)NC(N)=O` (configuration not stated): the IC50 was > 155 µM.

As for `Cc1ccc(Nc2ccc(C(N)=O)cc2[N+](=O)[O-])cc1C` [MLS000334544], the IC50 was > 155 µM.

Take `Cc1ccc(CC2(C)C(=O)Nc3ccc(OC(F)(F)F)cc32)cc1` (configuration not stated) [SMR001453901]: the concentration for half-maximal inhibition (IC50) was > 155 µM.

`Cc1nonc1C1CCCN1Cc1c[nH]nc1-c1ccc(-c2ccccc2)cc1` (configuration not stated) [SMR000316348]: the half-inhibitory concentration (IC50) was > 155 µM.

Consider `CC(Nc1ccc([N+](=O)[O-])cc1[N+](=O)[O-])c1ccccc1` (configuration not stated), for which the IC50 was > 155 µM.

With `Cc1nc2scc(-c3cccs3)c2c(=O)n1-n1cccc1` [MLS000113688], the IC50 was > 155 µM.

Regarding `CCCCCc1c(-c2cccc(OC)c2)ncn1CCc1ccccc1OC` [4-(3-methoxyphenyl)-1-[2-(2-methoxyphenyl)ethyl]-5-pentyl-imidazole;2,2,2-tris(fluoranyl)ethanoic acid], the IC50 is > 155 µM.

On to `CC(N=Nc1ccc(C#N)cc1[N+](=O)[O-])C1C=CC(=O)C=C1` (configuration not stated) [3-nitro-4-[2-[1-(4-oxidanylidenecyclohexa-2,5-dien-1-ylidene)ethyl]hydrazinyl]benzenecarbonitrile], for which the IC50 was > 155 µM.

Regarding `O=C(COC(=O)C1=NN(c2ccccc2)C(=O)CC1)Nc1ccc([N+](=O)[O-])cc1C(F)(F)F` [SMR001244149], the IC50 was > 155 µM.

As to `CCOC(=O)C(C#N)C=Nc1ccccc1OC` (configuration not stated) [MLS000568396], the IC50 is > 155 µM.

`CN(C)CCCN1C(=O)c2cccc3c([N+](=O)[O-])ccc(c23)C1=O` [2-[3-(dimethylamino)propyl]-6-nitro-1H-benzo[de]isoquinoline-1,3(2H)-dione]: the IC50 is > 155 µM.

Turning to `Cc1cc(C)c2nc(C(F)(F)F)nc(N3CC(C)OC(C)C3)c2c1` (configuration not stated) [4-(2,6-dimethyl-4-morpholinyl)-6,8-dimethyl-2-(trifluoromethyl)quinazoline], the IC50 was > 155 µM.

Consider `Cc1ccc(C)c(NC(=O)/C(C#N)=C/c2ccc[nH]2)c1` [SMR000678612], for which the IC50 is > 155 µM.

Take `COc1ccc2[nH]c(C(=O)N/N=C/c3ccc(OC)c(O)c3)cc2c1` [MLS001214387]: the IC50 was > 155 µM.

In the case of `O=C(NC=NOCc1ccc(Cl)cc1Cl)NOCc1ncc(C(F)(F)F)cc1Cl` [1-[[3-chloro-5-(trifluoromethyl)-2-pyridinyl]methoxy]-3-[[(2,4-dichlorophenyl)methoxyamino]methylidene]urea], the IC50 is > 155 µM.

For the molecule `CC(Nc1cc(N2CCN(S(C)(=O)=O)CC2)ccc1[N+](=O)[O-])c1ccccc1` (configuration not stated) [5-[4-(methylsulfonyl)-1-piperazinyl]-2-nitro-N-(1-phenylethyl)aniline], the IC50 is > 155 µM.

As for `COc1ccc(/C=N/N2C(=O)C3C4C=CC(C4)C3C2=O)cc1[N+](=O)[O-]` (configuration not stated) [SMR000283338], the IC50 was > 155 µM.

Take `O=C1C(=O)N(CCCn2ccnc2)C(c2cccc(Br)c2)C1C(=O)c1ccco1` (configuration not stated) [2-(3-bromophenyl)-3-[2-furanyl(oxo)methyl]-4-hydroxy-1-[3-(1-imidazolyl)propyl]-2H-pyrrol-5-one]: the IC50 was > 155 µM.

Regarding `Cc1ccccc1-n1c(SCc2cccc(F)c2)nc2[nH]ncc2c1=O` [6-[(3-fluorobenzyl)thio]-5-(2-methylphenyl)-2,5-dihydro-4H-pyrazolo[3,4-d]pyrimidin-4-one], the IC50 is > 155 µM.

On to `Cc1c(OCC(N)=O)ccc2c(-c3ccccc3)cc(=O)oc12` [2-(8-methyl-2-oxidanylidene-4-phenyl-chromen-7-yl)oxyethanamide], for which the IC50 was > 155 µM.

For `O=C(c1ccccc1)c1coc2c1C(=O)c1ccccc1C2=O` [3-benzoylbenzo[f]benzofuran-4,9-dione], the IC50 is > 155 µM.

Consider `COc1cccc2cc(-c3cc(=O)oc4ccc(O)cc34)oc12` [SMR000543646], for which the IC50 was > 155 µM.

`N#CCCSc1nc(N2CCOCC2)c2c(c1C#N)CCCC2` [3-(2-cyanoethylthio)-1-(4-morpholinyl)-5,6,7,8-tetrahydroisoquinoline-4-carbonitrile]: the IC50 is > 155 µM.

As for `N#Cc1c(N2CCCC2)ccc(Br)c1Cl` [3-bromo-2-chloro-6-tetrahydro-1H-pyrrol-1-ylbenzonitrile], the IC50 is > 155 µM.
